Experimental data taken from US20110038957A1, “NOVEL NUTRACEUTICAL COMPOSITIONS CONTAINING STEVIA EXTRACT OR STEVIA EXTRACT CONSTITUENTS AND USES THEREOF” (priority 2007, published 2011).
Where two headings read alike, the source gives them in different places.

Columns and labels:
[1] = biological target: T1, human glycine transporter 1b (GlyT1) (Homo sapiens, UniProt P48067); assay: Inhibition of glycine transporter 1 in a cellular assay ([3H]-glycine uptake into CHO cells); assay type: cell-based; conditions: pure compounds, CHO cells expressing GlyT1, 60 nM [3H]-glycine, 30 minutes, room temperature; for IC50: read-out: IC50 for tritiated glycine uptake
T1 construct: expressed in transfected cells
T1 sequence (P48067 1-652 isoform P48067-3): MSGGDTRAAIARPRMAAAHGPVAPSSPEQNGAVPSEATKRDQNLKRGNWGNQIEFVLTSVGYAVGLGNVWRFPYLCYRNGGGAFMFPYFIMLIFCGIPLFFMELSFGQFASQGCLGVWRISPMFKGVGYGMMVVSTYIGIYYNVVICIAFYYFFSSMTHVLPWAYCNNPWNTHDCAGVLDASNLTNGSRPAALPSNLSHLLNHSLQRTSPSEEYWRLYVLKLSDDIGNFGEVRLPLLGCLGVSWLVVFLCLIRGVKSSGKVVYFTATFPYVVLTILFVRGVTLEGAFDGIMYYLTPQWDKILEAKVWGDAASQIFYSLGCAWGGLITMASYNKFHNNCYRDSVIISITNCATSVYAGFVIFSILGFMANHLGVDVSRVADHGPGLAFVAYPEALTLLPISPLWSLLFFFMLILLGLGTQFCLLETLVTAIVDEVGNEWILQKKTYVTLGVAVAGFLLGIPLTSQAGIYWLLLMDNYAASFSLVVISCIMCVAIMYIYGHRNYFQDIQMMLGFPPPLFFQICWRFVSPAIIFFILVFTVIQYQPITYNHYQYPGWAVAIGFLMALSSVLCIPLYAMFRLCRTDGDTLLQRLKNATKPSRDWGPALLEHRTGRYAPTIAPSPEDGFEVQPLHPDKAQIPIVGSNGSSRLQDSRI
Protocol: CHO cells stably expressing the human glycine transporter 1b cDNA (GlyT1) were routinely grown in Dulbecco's Modified Eagle's Medium (Invitrogen, Carlsbad, USA) containing 10% dialysed foetal calf serum, penicillin, streptomycin, proline and the antibiotic G418. Cells were harvested by trypsinisation one day prior to the assay and were seeded in the above mentioned medium. Immediately prior to the assay, the medium was replaced by uptake buffer containing 150 mM NaCl, 1 mM CaCl2, 2.5 mM KCl, 2.5 mM MgCl2, 10 mM Glucose and 10 mM N-2-hydroxyethylpiperazine-N′-2-ethanesulfonic acid (HEPES buffer).
Glycine uptake into the cells was determined by addition of 60 nM radio-labelled [^3H]-glycine (Amersham Biosciences GE Healthcare, Slough, UK) and incubation for 30 minutes at room temperature. Following removal of unincorporated label by gentle washing three times with the above buffer, incorporated glycine was quantified by liquid scintillation counting.

[2] = system: pCREB (activated form of the cAMP response element binding protein); assay: Hippocampal slice cultures, immunohistochemistry of synaptic marker pCREB; assay type: cell-based, Wistar rats; set-up: key: ++++ shows a qualitative maximal activation; ++ and + signify a half-maximum and a moderate activation, respectively; ++ and + signify a half-maximum and a moderate activation, respectively; ± indicates no change in immunoreactivity; conditions: 15 min treatment after 48 h in culture; vs sister cultures treated with buffer
Protocol: (§1) Seven-day-old Wistar rats were decapitated using a guillotine. In less than 1 minute the skull was opened, the cerebral hemispheres were separated and transferred and both hippocampi were dissected and transferred into ice-cold buffer containing 137 mM NaCl, 5 mM KCl, 0.85 mM Na2HPO4, 1.5 mM CaCl2, 0.66 mM KH2PO4, 0.28 mM MgSO4, 1 mM MgCl2, 2.7 mM NaHCO3, 1 mM Kynurenic acid and 0.6% D-glucose. Transverse hippocampal slices (400 μm) were prepared using a vibrating blade microtome (VT1200S; Leica Microsystems (Schweiz) AG, Heerbrugg, Switzerland) in the same buffer. Hippocampal slices were individually placed on membrane inserts (Millicell Culture Plate Inserts, 0.4 μm) and cultivated at 35° C., 5% CO2, 95% humidity in a medium containing a 1:1 mixture of BME and MEM (both from Invitrogen) containing 25% heat-inactivated horse serum, 1× GlutaMAX, 1× Penicillin/Streptomycin, 0.6% glucose and 1 mM Kynurenic acid (Stoppini 1991 J. Neurosci. Methods 37(2):173-82). After 48 h in culture, synaptic NMDA receptors were activated by addition of Stevia extract, its major constituents or control substances for 15 min in 140 mM NaCl, 5 mM KCl, 1.3 mM CaCl2, 25 mM HEPES (pH 7.3), 33 mM D-glucose and 0.02 mM bicuculline methiodide. […] An additional positive control comprised the addition of 200 μM glycine to sister cultures. After the treatments, sections were washed and fixed for immunohistochemistry. Markers of enhanced synaptic activity, normally associated with long-term potentiation, representing an ex vivo model of learning and memory were quantitated (see Table 3, below). Treatment of hippocampal cultures with Stevia extract, steviol, isosteviol and stevioside induced one or more biochemical markers typical for LTP (pCREB: activated form of the cAMP response element binding protein; pMAPK: activated form of the mitogen-activated protein kinase; […]

[3] = system: pMAPK (activated form of the mitogen-activated protein kinase); assay: Hippocampal slice cultures, immunohistochemistry of synaptic marker pMAPK; assay type: cell-based, Wistar rats; set-up: key: ++++ shows a qualitative maximal activation; ++ and + signify a half-maximum and a moderate activation, respectively; ++ and + signify a half-maximum and a moderate activation, respectively; ± indicates no change in immunoreactivity; conditions: 15 min treatment after 48 h in culture; vs sister cultures treated with buffer
Protocol: as §1

[4] = system: GluR1 (cell surface presence of AMPA receptor 1); assay: Hippocampal slice cultures, immunohistochemistry of synaptic marker GluR1; assay type: cell-based, Wistar rats; set-up: key to GluR1, relative activation of synaptic marker: ++++ shows a qualitative maximal activation; ++ and + signify a half-maximum and a moderate activation, respectively; ++ and + signify a half-maximum and a moderate activation, respectively; ± indicates no change in immunoreactivity; conditions: 15 min treatment after 48 h in culture; vs sister cultures treated with buffer
Protocol: as §1

[5] = system: NMDA receptor; conditions: mouse hippocampal slice, Schaffer collateral stimulation (Bergeron et al 1998); cited from earlier work
[6] = system: NMDA receptor; conditions: rat hippocampal slice, Schaffer collateral stimulation (Bergeron et al 1998); cited from earlier work
[7] = system: adult mice; conditions: systemic administration (Kinney et al 2003); cited from earlier work
[8] = system: adult mice; conditions: systemic administration, adult mice (Kinney et al 2003); cited from earlier work

Compound: C=C1C[C@@]23CC[C@H]4[C@@](C)(CCC[C@@]4(C)C(=O)O[C@@H]4O[C@H](CO)[C@@H](O)[C@H](O)[C@H]4O)[C@@H]2CC[C@]1(O[C@@H]1O[C@H](CO)[C@@H](O)[C@H](O[C@@H]2O[C@H](CO)[C@@H](O)[C@H](O)[C@H]2O)[C@H]1O[C@@H]1O[C@H](CO)[C@@H](O)[C@H](O)[C@H]1O)C3 [Rebaudioside A]
- IC50 for tritiated glycine uptake [1]: inactive
- pCREB, relative activation of synaptic marker [2]: ±
- pMAPK, relative activation of synaptic marker [3]: ±
- GluR1, relative activation of synaptic marker [4]: ±

Compound: CNCC(=O)O [Sarcosine, reference compound]
- IC50 [1]: 35.9 µM

Compound: CN(CCC(Oc1ccc(-c2ccccc2)cc1)c1ccc(F)cc1)CC(=O)O (stereo not shown) [NFPS, N-[3-(4′-fluorophenyl)-3-(4′-phenylphenoxy)] propylsarcosine]
- NMDA receptor responses in CA1 pyramidal cells [5]: enhanced NMDA receptor responses in CA1 pyramidal cells were observed
- NMDA receptor responses in CA1 pyramidal cells [6]: enhanced NMDA receptor responses in CA1 pyramidal cells were observed
- LTP in the dentate gyrus [7]: increased LTP in the dentate gyrus
- Prepulse inhibition of the acoustic startle response [8]: enhanced prepulse inhibition of the acoustic startle response

Compound: C=C1C[C@@]23CC[C@H]4[C@@](C)(CCC[C@@]4(C)C(=O)O[C@@H]4O[C@H](CO)[C@@H](O)[C@H](O)[C@H]4O)[C@@H]2CC[C@]1(O[C@@H]1O[C@H](CO)[C@@H](O)[C@H](O)[C@H]1O[C@@H]1O[C@H](CO)[C@@H](O)[C@H](O)[C@H]1O)C3 [Stevioside]
- IC50 for tritiated glycine uptake [1]: inactive
- pCREB, relative activation of synaptic marker [2]: ±
- pMAPK, relative activation of synaptic marker [3]: ++
- GluR1, relative activation of synaptic marker [4]: ±

Compound: Isosteviol
- IC50 for tritiated glycine uptake [1]: inactive
- pCREB, relative activation of synaptic marker [2]: +
- pMAPK, relative activation of synaptic marker [3]: ±
- GluR1, percentage increase of control values [4]: 361%

Compound: C=C1C[C@@]23CC[C@H]4[C@@](C)(CCC[C@@]4(C)C(=O)O)[C@@H]2CC[C@]1(O)C3 [Steviol]
- IC50 for tritiated glycine uptake [1]: inactive
- pCREB, relative activation of synaptic marker [2]: ++
- pMAPK, relative activation of synaptic marker [3]: ±
- GluR1, percentage increase of control values [4]: 340%

Compound: CN(CC[C@@H](Oc1ccc(C(F)(F)F)cc1)c1ccccc1)CC(=O)O [ORG24598, reference compound]
- IC50 [1]: 0.02 µM
